For 51 molecules, IC50 results are on record in patent US20130310379A1, “MODULATORS OF METHYL MODIFYING ENZYMES, COMPOSITIONS AND USES THEREOF” (CONSTELLATION PHARMACEUTICALS, priority 2010, published 2013).

Where only a bound is given, the exact number is not on record here.

By IC50 is commonly meant the concentration needed to halve the response being measured.

The target in the assay is EZH2 (Homo sapiens, UniProt Q15910). Briefly: EZH2 assay: rPRC2 with biotinylated oligonucleosome substrates and 3H SAM, FlashPlate scintillation counting, IC50. Format: biochemical. To be noted: rPRC2, biotinylated oligonucleosome substrates, 3H SAM; read-out: EZH2 IC50. Here is the method: Assays were carried out by mixing rPRC2 together with biotinylated oligonucleosome substrates in the presence of the radio-labeled enzyme co-factor, S-adenosyl-L-methionine (^3H SAM) (Perkin Elmer) and monitoring the enzymatically mediated transfer of tritiated methyl groups from ^3H SAM to histone lysine residues. The amount of resulting tritated methylhistone product was measured by first capturing the biotinylated oligonuclesomes in streptavidin (SAV) coated FlashPlates (Perkin Elmer), followed by a wash step to remove un-reacted ^3H SAM, and then counting on a TopCount NXT 384 well plate scintillation counter (Perkin Elmer). The final assay conditions for EZH2 were as follows: 50 mM Tris Buffer pH 8.5, 1 mM DTT, 69 uM Brij-35 detergent, 5.0 mM MgCl2, 0.1 mg/mL BSA, 0.2 uM ^3H SAM, 0.2 uM biotinylated oligonucleosomes, 3.6 uM H3K27me3 peptide and 2 nM EZH2.
Chain of EZH2 (Q15910 whole entry): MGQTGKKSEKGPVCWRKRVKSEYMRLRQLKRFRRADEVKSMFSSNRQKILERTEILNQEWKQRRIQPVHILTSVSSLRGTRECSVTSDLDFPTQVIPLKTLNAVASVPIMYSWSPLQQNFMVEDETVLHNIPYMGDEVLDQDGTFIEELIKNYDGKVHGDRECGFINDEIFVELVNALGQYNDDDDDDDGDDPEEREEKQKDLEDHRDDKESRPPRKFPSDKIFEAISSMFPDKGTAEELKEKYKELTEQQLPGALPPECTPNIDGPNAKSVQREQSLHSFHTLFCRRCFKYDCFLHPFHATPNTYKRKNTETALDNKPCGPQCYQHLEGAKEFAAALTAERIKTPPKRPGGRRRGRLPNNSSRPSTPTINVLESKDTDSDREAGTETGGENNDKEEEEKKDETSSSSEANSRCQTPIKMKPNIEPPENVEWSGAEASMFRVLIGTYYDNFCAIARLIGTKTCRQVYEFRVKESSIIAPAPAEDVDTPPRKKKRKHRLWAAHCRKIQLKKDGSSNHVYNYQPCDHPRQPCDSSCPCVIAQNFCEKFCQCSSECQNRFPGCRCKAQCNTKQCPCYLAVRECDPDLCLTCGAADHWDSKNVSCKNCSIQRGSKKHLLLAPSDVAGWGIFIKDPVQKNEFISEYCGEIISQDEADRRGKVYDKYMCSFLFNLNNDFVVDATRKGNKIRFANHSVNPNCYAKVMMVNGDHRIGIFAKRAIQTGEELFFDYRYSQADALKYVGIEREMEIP
Chain of EZH2 (O75530 whole entry partner): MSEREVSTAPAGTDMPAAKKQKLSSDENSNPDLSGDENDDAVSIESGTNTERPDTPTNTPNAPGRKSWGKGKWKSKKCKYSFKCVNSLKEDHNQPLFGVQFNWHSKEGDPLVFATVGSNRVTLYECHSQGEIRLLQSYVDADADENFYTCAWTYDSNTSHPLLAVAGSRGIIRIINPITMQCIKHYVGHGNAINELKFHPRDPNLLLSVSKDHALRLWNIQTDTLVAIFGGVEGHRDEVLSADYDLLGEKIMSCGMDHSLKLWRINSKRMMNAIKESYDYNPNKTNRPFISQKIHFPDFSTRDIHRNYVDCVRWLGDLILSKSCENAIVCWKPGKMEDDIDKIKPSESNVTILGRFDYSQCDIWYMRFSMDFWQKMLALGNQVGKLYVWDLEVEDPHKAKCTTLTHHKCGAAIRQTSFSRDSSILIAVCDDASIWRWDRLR
Chain of EZH2 (Q15022 whole entry partner): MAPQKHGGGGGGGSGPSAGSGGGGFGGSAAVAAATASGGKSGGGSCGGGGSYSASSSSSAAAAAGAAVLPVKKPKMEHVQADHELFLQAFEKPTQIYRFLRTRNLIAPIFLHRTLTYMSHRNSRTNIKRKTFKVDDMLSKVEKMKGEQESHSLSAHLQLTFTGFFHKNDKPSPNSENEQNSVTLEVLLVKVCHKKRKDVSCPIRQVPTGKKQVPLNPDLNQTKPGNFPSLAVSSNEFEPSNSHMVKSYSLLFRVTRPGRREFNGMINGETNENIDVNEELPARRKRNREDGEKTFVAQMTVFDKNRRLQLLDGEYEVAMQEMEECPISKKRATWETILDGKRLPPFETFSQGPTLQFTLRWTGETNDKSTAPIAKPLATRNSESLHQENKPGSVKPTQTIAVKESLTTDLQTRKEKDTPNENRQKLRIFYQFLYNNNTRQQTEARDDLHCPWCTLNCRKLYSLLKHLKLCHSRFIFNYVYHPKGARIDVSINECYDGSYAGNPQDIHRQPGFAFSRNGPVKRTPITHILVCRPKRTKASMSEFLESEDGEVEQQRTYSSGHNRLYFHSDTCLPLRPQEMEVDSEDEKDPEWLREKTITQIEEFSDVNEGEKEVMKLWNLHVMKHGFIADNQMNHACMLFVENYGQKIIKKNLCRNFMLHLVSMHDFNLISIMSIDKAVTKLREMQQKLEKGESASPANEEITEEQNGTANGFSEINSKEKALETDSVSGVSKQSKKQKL
Compound IC50 measurements were obtained as follows: Compounds were first dissolved in 100% DMSO as 10 mM stock solutions. […] A 12.5 uL volume of the HMT enzyme, H3K27me3 peptide and oligonucleosome substrate in assay buffer was added to each well of the assay plate using a Multidrop Combi (ThermoFisher). Compounds were pre-incubated with the enzyme for 20 min, followed by initiation of the methyltransferase reaction by addition of 12.5 uL of 3H SAM in assay buffer (final volume=25 uL). The final concentrations of compounds ranged from a top default concentration of 80 uM down to 0.16 uM in ten 2-fold dilution steps. Reactions were carried out for 60 minutes and quenched with 20 uL per well of 1.96 mM SAH, 50 mM Tris PH 8.5, 200 mM EDTA. Stopped reactions were transferred to SAV coated Flashplates (Perkin Elmer), incubated for 120 min, washed with a plate washer, and then read on the TopCount NXT (1.0 min/well) to measure the amount of methylhistone product formed during the reaction. The amount of methylhistone product was compared with the amount of product formed in the 0% and 100% inhibition control wells allowing the calculation of % Inhibition in the presence of the individual compounds at various concentrations. IC50's were computed using a 4 parameter fit non-linear curve fitting software package (XLFIT, part of the database package, ActivityBase (IDBS)) where the four parameters were IC50, Hill slope, pre-transitional baseline (0% INH), and post-transitional baseline (100% INH); with the latter two parameters being fixed to zero and 100%, respectively, by default.
Consider `CC1(C)CC(NC(=O)c2ccc(Oc3ccccc3)c(Cl)c2)CC(C)(C)N1` [Compound I-49, 3-chloro-N-(2,2,6,6-tetramethylpiperidin-4-yl)-4-phenoxybenzamide], for which the IC50 was in the range of 20 to 80 µM.

Regarding `CC1(C)CC(NC(=O)c2ccc(Sc3ccccc3)cc2)CC(C)(C)N1` [Compound I-50], the IC50 fell in the range of 20 to 80 µM.

In the case of `CC1(C)CC(NC(=O)c2ccc(COc3cccc(-c4cccc(C#N)c4)c3)cc2)CC(C)(C)N1` [Compound I-51], the IC50 was 20 to 80 µM.

Regarding `CC1(C)CC(NC(=O)c2ccc(Oc3ccccc3)cc2)CC(C)(C)N1` [Compound I-52], the IC50 was in the range of 20 to 80 µM.

Consider `COC(=O)c1cccc(COc2ccc(C(=O)NC3CC(C)(C)NC(C)(C)C3)cc2)c1` [Compound I-53], for which the IC50 is 20 to 80 µM.

Regarding `Cc1cccc(OCc2ccc(C(=O)NC3CC(C)(C)NC(C)(C)C3)cc2)c1C` [Compound I-54], the IC50 was in the range of 20 to 80 µM.

With `COc1ncccc1-c1cccc(OCc2ccc(C(=O)NC3CC(C)(C)NC(C)(C)C3)cc2)c1` [Compound I-55], the concentration for half-maximal inhibition (IC50) was 20 to 80 µM.

On to `CC1(C)CC(NC(=O)c2ccc(Oc3ccccn3)cc2)CC(C)(C)N1` [Compound I-56], for which the IC50 is 20 to 80 µM.

Consider `COc1ccccc1Oc1ccc(C(=O)NC2CC(C)(C)NC(C)(C)C2)cc1` [Compound I-57], for which the IC50 lay within 20 to 80 µM.

In the case of `Cc1ncccc1-c1cccc(OCc2ccc(C(=O)NC3CC(C)(C)NC(C)(C)C3)cc2)c1` [Compound I-58], the IC50 lay in the range of 20 to 80 µM.

In the case of `CC1(C)CC(NC(=O)c2ccc(COc3cccc(F)c3)cc2)CC(C)(C)N1` [Compound I-59], the half-maximal inhibitory concentration (IC50) lay within 20 to 80 µM.

Take `Cc1cccc(Oc2ccc(C(=O)NC3CC(C)(C)NC(C)(C)C3)cc2)c1` [Compound I-60]: the IC50 lay within 20 to 80 µM.

On to `CC1(C)CC(NC(=O)c2ccc(-c3ccccc3)cc2)CC(C)(C)N1` [Compound I-61], for which the IC50 fell in the range of 20 to 80 µM.

Take `CC1(C)CC(NC(=O)c2ccc(COCc3ccccc3)cc2)CC(C)(C)N1` [Compound I-62]: the IC50 fell in the range of 20 to 80 µM.

On to `COc1ccc(OCc2ccc(C(=O)NC3CC(C)(C)NC(C)(C)C3)cc2)cc1` [Compound I-63], for which the IC50 was in the range of 20 to 80 µM.

On to `CC1(C)CC(NC(=O)c2ccc(Oc3ccccc3)nc2)CC(C)(C)N1` [Compound I-64, 6-Phenoxy-N-(2,2,6,6-tetramethylpiperidin-4-yl)nicotinamide], for which the IC50 lay within 20 to 80 µM.

Consider `CC1(C)CC(NC(=O)c2ccc(COc3cccc(-c4ccc(=O)[nH]c4)c3)cc2)CC(C)(C)N1` [Compound I-65], for which the IC50 was in the range of 20 to 80 µM.

With `CC1(C)CC(NC(=O)c2ccc(COc3ccnc(Cl)c3)cc2)CC(C)(C)N1` [Compound I-66], the 50% inhibitory concentration (IC50) was 20 to 80 µM.

As for `CC1(C)CC(NC(=O)c2ccc(COc3ccc(C#N)cc3)cc2)CC(C)(C)N1` [Compound I-67], the concentration for half-maximal inhibition (IC50) was in the range of 20 to 80 µM.

Take `CC1(C)CC(NC(=O)c2ccc(Oc3ccc(I)cn3)cc2)CC(C)(C)N1` [Compound I-68, 4-(5-Iodopyridin-2-yloxy)-N-(2,2,6,6-tetramethylpiperidin-4-yl)benzamide]: the IC50 was over 80 µM.

For `Cc1cccc(C)c1Oc1ccc(C(=O)NC2CC(C)(C)NC(C)(C)C2)cc1` [Compound I-69], the IC50 is over 80 µM.

On to `Cc1ccc(OCc2ccc(C(=O)NC3CC(C)(C)NC(C)(C)C3)cc2)nc1` [Compound I-70], for which the IC50 is over 80 µM.

Take `COc1cccc(Oc2ccc(C(=O)NC3CC(C)(C)NC(C)(C)C3)cc2)c1` [Compound I-71]: the IC50 is over 80 µM.

With `CN1CCC(N(C)C(=O)c2ccc(Oc3ccccc3)cc2)CC1` [Compound I-72], the IC50 was over 80 µM.

With `CC1(C)CC(NC(=O)c2ccc(Oc3ccc([N+](=O)[O-])cc3)cc2)CC(C)(C)N1` [Compound I-73], the half-inhibitory concentration (IC50) was over 80 µM.

For the molecule `Cc1ccccc1OCc1ccc(C(=O)NC2CC(C)(C)NC(C)(C)C2)cc1` [Compound I-74], the IC50 was over 80 µM.

As to `CC1(C)CC(NC(=O)c2ccc(OCc3ccccc3)cc2)CC(C)(C)N1` [Compound I-75], the IC50 is over 80 µM.

With `CC1(C)CC(NC(=O)c2ccc(COc3cccc(C#N)c3)cc2)CC(C)(C)N1` [Compound I-76], the IC50 was over 80 µM.

In the case of `CC1(C)CC(NC(=O)c2ccc(COc3cccnc3Cl)cc2)CC(C)(C)N1` [Compound I-77], the IC50 is over 80 µM.

For the molecule `CC1(C)CC(NC(=O)c2ccc(Oc3cnccn3)cc2)CC(C)(C)N1` [Compound I-78], the IC50 is over 80 µM.

In the case of `CC1(C)CC(NC(=O)c2ccc(Oc3ncccn3)cc2)CC(C)(C)N1` [Compound I-79], the IC50 is over 80 µM.

As to `CC1(C)CC(NC(=O)c2ccc(COc3ccccn3)cc2)CC(C)(C)N1` [Compound I-80], the IC50 was over 80 µM.

As for `CC1(C)CC(NC(=O)c2ccc(OCc3ccc([N+](=O)[O-])cc3)cc2)CC(C)(C)N1` [Compound I-81], the IC50 was over 80 µM.

For the molecule `CC1(C)CC(NC(=O)c2ccc(Oc3ccc4[nH]ccc4c3)cc2)CC(C)(C)N1` [Compound I-82], the IC50 was over 80 µM.

Take `CC1(C)CC(NC(=O)c2ccc(CSc3ccccc3)cc2)CC(C)(C)N1` [Compound I-83]: the IC50 was over 80 µM.

For the molecule `CC1(C)CC(NC(=O)c2ccc(OCCc3ccccc3)cc2)CC(C)(C)N1` [Compound I-84], the IC50 was over 80 µM.

Turning to `Cc1cccc(OCc2ccc(C(=O)NC3CC(C)(C)NC(C)(C)C3)cc2)n1` [Compound I-85, 4-((6-methylpyridin-2-yloxy)methyl)-N-(2,2,6,6-tetramethylpiperidin-4-yl)benzamide], the IC50 is over 80 µM.

As for `CC1(C)CC(NC(=O)c2ccc(Oc3ccc(F)cc3)cc2)CC(C)(C)N1` [Compound I-86], the IC50 was over 80 µM.

For the molecule `Cc1ccc(Oc2ccc(C(=O)NC3CC(C)(C)NC(C)(C)C3)cc2)cc1C` [Compound I-87], the IC50 is over 80 µM.

Take `CC1(C)CC(NC(=O)c2ccc(OCc3cccc(F)c3)cc2)CC(C)(C)N1` [Compound I-88]: the IC50 is over 80 µM.

As to `Cc1ccc(Oc2ccc(C(=O)NC3CC(C)(C)NC(C)(C)C3)cc2)cn1` [Compound I-89], the half-maximal inhibitory concentration (IC50) is over 80 µM.

Take `CC1(C)CC(NC(=O)c2ccc(OCc3ccccc3F)cc2)CC(C)(C)N1` [Compound I-90]: the IC50 is over 80 µM.

Regarding `CC1(C)CC(NC(=O)c2ccc(Oc3ccc(Cl)cc3)cc2)CC(C)(C)N1` [Compound I-91], the IC50 is over 80 µM.

As for `Cc1ccc(Oc2ccc(C(=O)NC3CC(C)(C)NC(C)(C)C3)cc2)cc1` [Compound I-92], the concentration for half-maximal inhibition (IC50) was over 80 µM.

As for `CC1(C)CC(NC(=O)c2ccc(Oc3ccc(Br)cc3)cc2)CC(C)(C)N1` [Compound I-93], the IC50 is over 80 µM.

Regarding `CC1(C)CC(NC(=O)c2cccc(Oc3ccccc3)c2)CC(C)(C)N1` [Compound I-94], the IC50 is over 80 µM.

In the case of `CC1(C)CC(NC(=O)c2ccccc2Oc2ccccc2)CC(C)(C)N1` [Compound I-95], the IC50 was over 80 µM.

Turning to `CC(C)NC(=O)c1ccc(Oc2ccccc2)cc1` [Compound I-96], the IC50 was over 80 µM.

For the molecule `COc1ccc(Oc2ccc(C(=O)NC3CC(C)(C)NC(C)(C)C3)cc2)cc1` [Compound I-97], the IC50 is over 80 µM.

`O=C(c1ccc(Oc2ccccc2)cc1)N1CCN(c2ccccc2)CC1` [Compound I-99]: the IC50 is over 80 µM.

On to `O=C(N[C@H]1CCN(Cc2ccccc2)C1)c1ccc(Oc2ccccc2)cc1` [Compound I-100], for which the IC50 was over 80 µM.
